In ChEMBL document CHEMBL4007454 (J Med Chem, 2017):
Converted amounts (≈) assume the structure as drawn.

Key:
[1] = Equilibrium solubility in fasted state simulated intestinal fluid after 24 hrs by HPLC method; format: physicochemical
[2] = AUC (0 to 8 hrs) in Han-Wistar rat at 2 mg/kg, iv measured after 2 to 480 mins by LC-MS/MS analysis; format: ADME, organism-based; design: time < 8 hr, dose 2 mg/kg, route intravenous; conditions: in vivo
Rattus norvegicus [3] = assay: In vivo inhibition of LRRK2 Ser935 phosphorylation in CD rat brain cortex assessed as unbound brain concentration causing reduction in ratio of phosphorylated Ser935 to total LRRK2 protein at 1 to 100 mg/kg, po administered 1 hr post treatment by Western blot analysis; format: functional
Cytochrome P450 3A4 [4] = biological target: T1, Cytochrome P450 3A4 (Homo sapiens, UniProt P08684); assay: Inhibition of human CYP3A4; format: ADME
Cytochrome P450 2D6 = Cytochrome P450 2D6 (Homo sapiens, UniProt P10635); assay: Inhibition of human CYP2D6; format: ADME
Cytochrome P450 3A4 [5] = biological target: T1, Cytochrome P450 3A4; assay: Time dependent inhibition of human CYP3A4; format: ADME
[6] = Intrinsic clearance in rat hepatocytes assessed per million cells at 1 uM after 180 mins by LC-MS/MS analysis; format: ADME, cell-based, Hepatocyte; conditions: read-out: CLH
[7] = Fraction unbound in rat plasma at 10 uM after 4 hrs by rapid equilibrium dialysis method; format: ADME, cell-free
[8] = Intrinsic clearance in human hepatocytes assessed per million cells at 1 uM after 180 mins by LC-MS/MS analysis; format: ADME, cell-based, Hepatocyte; conditions: read-out: CLH
Mus musculus [9] = assay: In vivo inhibition of LRRK2 Ser935 phosphorylation in mouse brain assessed as unbound plasma concentration causing reduction in ratio of phosphorylated Ser935 to total LRRK2 protein at 1 to 100 mg/kg, po administered 1 hr post treatment by Western blot analysis; format: functional, organism-based
[10] = AUC (0 to 8 hrs) in Han-Wistar rat at 10 mg/kg, po measured after 15 to 480 mins by LC-MS/MS analysis; format: ADME, organism-based; design: dose 10 mg/kg, time < 8 hr, route oral; conditions: in vivo
[11] = MRT in Han-Wistar rat at 10 mg/kg, po measured after 15 to 480 mins by LC-MS/MS analysis; format: ADME, organism-based; conditions: in vivo
[12] = Equilibrium solubility in pH 6.5 Phosphate buffer after 24 hrs by HPLC method; format: physicochemical
[13] = Tmax in Han-Wistar rat at 10 mg/kg, po measured after 15 to 480 mins by LC-MS/MS analysis; format: ADME, organism-based; conditions: in vivo
Cytochrome P450 2C9 = Cytochrome P450 2C9 (Homo sapiens, UniProt P11712); assay: Inhibition of human CYP2C9; format: ADME
[14] = Oral bioavailability in Han-Wistar rat at 10 mg/kg, measured after 15 to 480 mins by LC-MS/MS analysis; format: ADME, organism-based; conditions: in vivo
Rattus norvegicus [15] = assay: In vivo inhibition of LRRK2 Ser935 phosphorylation in CD rat brain cortex assessed as reduction in ratio of phosphorylated Ser935 to total LRRK2 protein at => 30 mg/kg, po administered 1 hr post treatment by Western blot analysis; format: functional
Mus musculus [16] = assay: In vivo inhibition of LRRK2 Ser935 phosphorylation in mouse brain cortex assessed as reduction in ratio of phosphorylated Ser935 to total LRRK2 protein at =>10 mg/kg, po administered 1 hr prior to euthanasia measured by Western blot analysis; format: functional
[17] = Initial concentration in Han-Wistar rat at 2 mg/kg, iv measured after 2 to 480 mins by LC-MS/MS analysis; format: ADME, organism-based; conditions: in vivo
[18] = Equilibrium solubility in pH 5 acetate buffer after 24 hrs by HPLC method; format: physicochemical
Rattus norvegicus [19] = assay: In vivo inhibition of LRRK2 Ser935 phosphorylation in CD rat brain cortex assessed as unbound plasma concentration causing reduction in ratio of phosphorylated Ser935 to total LRRK2 protein at 1 to 100 mg/kg, po administered 1 hr post treatment by Western blot analysis; format: functional
[20] = Equilibrium solubility in simulated gastric fluid after 24 hrs by HPLC method; format: physicochemical
[21] = MRT in Han-Wistar rat at 2 mg/kg, iv measured after 2 to 480 mins by LC-MS/MS analysis; format: ADME, organism-based; conditions: in vivo
Mus musculus [22] = assay: In vivo inhibition of LRRK2 Ser935 phosphorylation in mouse brain assessed as unbound brain concentration causing reduction in ratio of phosphorylated Ser935 to total LRRK2 protein at 1 to 100 mg/kg, po administered 1 hr post treatment by Western blot analysis; format: functional, organism-based
[23] = Clearance in Han-Wistar rat at 2 mg/kg, iv measured after 2 to 480 mins by LC-MS/MS analysis; format: ADME, organism-based; conditions: in vivo
[24] = Cmax in Han-Wistar rat at 10 mg/kg, po measured after 15 to 480 mins by LC-MS/MS analysis; format: ADME, organism-based; conditions: in vivo, read-out: C0
[25] = Equilibrium solubility in Water after 24 hrs by HPLC method; format: physicochemical
[26] = Equilibrium solubility in fed state simulated intestinal fluid after 24 hrs by HPLC method; format: physicochemical
[27] = Half life in Han-Wistar rat at 2 mg/kg, iv measured after 2 to 480 mins by LC-MS/MS analysis; format: ADME, organism-based; conditions: in vivo

T1 sequence (P08684 whole entry): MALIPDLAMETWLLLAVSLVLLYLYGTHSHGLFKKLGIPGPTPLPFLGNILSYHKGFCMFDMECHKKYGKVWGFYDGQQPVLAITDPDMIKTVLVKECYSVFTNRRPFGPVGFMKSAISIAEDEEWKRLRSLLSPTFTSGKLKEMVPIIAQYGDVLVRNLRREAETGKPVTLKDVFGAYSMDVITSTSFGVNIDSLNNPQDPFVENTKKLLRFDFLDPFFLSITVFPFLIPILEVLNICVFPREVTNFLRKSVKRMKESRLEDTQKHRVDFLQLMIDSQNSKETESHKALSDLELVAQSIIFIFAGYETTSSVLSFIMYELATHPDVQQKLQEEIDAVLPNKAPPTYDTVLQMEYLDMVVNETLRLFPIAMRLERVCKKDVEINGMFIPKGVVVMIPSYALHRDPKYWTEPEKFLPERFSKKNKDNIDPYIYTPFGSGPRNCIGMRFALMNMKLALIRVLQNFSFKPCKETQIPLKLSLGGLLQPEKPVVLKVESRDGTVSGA
Sequence of Cytochrome P450 2C9 (P11712 whole entry): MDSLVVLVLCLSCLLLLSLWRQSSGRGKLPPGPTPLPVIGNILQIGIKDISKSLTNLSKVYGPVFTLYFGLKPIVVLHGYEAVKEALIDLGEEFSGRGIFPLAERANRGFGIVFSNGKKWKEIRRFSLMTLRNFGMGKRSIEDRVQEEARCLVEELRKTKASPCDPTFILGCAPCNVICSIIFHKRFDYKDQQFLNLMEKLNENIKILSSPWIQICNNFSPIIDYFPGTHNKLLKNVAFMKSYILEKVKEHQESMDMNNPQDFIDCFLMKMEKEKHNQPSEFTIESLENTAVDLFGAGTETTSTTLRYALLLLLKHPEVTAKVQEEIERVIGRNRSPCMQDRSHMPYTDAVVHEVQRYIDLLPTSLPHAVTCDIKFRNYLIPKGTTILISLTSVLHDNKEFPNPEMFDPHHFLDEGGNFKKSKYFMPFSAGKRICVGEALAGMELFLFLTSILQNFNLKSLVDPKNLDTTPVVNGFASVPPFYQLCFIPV
Sequence of Cytochrome P450 2D6 (P10635 whole entry): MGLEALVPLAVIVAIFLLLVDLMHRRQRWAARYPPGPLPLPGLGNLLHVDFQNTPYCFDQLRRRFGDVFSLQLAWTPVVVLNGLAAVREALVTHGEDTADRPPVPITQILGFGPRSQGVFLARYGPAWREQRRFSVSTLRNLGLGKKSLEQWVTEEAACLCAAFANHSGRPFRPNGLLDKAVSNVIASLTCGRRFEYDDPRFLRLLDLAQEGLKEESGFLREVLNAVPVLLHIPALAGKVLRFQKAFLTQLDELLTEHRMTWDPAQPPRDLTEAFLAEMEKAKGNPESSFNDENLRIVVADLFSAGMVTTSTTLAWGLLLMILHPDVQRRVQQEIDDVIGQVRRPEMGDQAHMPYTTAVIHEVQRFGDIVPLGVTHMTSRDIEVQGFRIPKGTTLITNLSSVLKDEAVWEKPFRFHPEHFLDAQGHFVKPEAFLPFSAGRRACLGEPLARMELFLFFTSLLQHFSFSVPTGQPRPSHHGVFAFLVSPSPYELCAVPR

## C[C@@H]1CN(c2cc(-c3n[nH]c4ccc(OC5(C)CC5)cc34)ncn2)C[C@H](C)O1 [MLi-2]
[1]
  solubility thermodynamic at 24 h: 0.014 to 0.038 mg/mL (≈ 36.9 to 100 µM)
[2]
  AUC(0-t) at 8 h: 660 nM·h
Rattus norvegicus [3]
  fIC50: 0.18 nM
Cytochrome P450 3A4 [4]
  IC50: > 50000 nM
Cytochrome P450 2D6
  IC50: > 50000 nM
Cytochrome P450 3A4 [5]
  TDI: Not Active
[6]
  hepatocyte CLint at 1 µM: 15 µL/min/1e6 cells
[7]
  fraction unbound at 4 h, 10 µM: 0.012
[8]
  hepatocyte CLint at 1 µM: 8 µL/min/1e6 cells
Mus musculus [9]
  IC50: 1.1 nM
[10]
  AUC(0-t) at 8 h: 1300 nM·h
[11]
  MRT: 4 h
[12]
  solubility thermodynamic at 24 h: 0.014 to 0.038 mg/mL (≈ 36.9 to 100 µM)
[13]
  Tmax: 1.3 h
Cytochrome P450 2C9
  IC50: > 50000 nM
[14]
  bioavailability: 39%
Rattus norvegicus [15]
  inhibition (INH): >90%
Mus musculus [16]
  inhibition (INH): >90%
[17]
  C0: 1.17 µM
[18]
  solubility thermodynamic at 24 h: 0.014 to 0.038 mg/mL (≈ 36.9 to 100 µM)
Rattus norvegicus [19]
  fIC50: 0.2 nM
[20]
  solubility thermodynamic at 24 h: 0.014 to 0.038 mg/mL (≈ 36.9 to 100 µM)
[21]
  MRT: 1.7 h
Mus musculus [22]
  IC50: 0.8 nM
[23]
  clearance: 9.18 L/h/kg
[24]
  Cmax: 0.48 µM
[25]
  solubility thermodynamic at 24 h: 0.014 to 0.038 mg/mL (≈ 36.9 to 100 µM)
[26]
  solubility thermodynamic at 24 h: 0.014 to 0.038 mg/mL (≈ 36.9 to 100 µM)
[27]
  half-life: 1.8 h
